HELM strings list units from the 5' end as sugar, base in round brackets, then linkage (d deoxyribose, r ribose, m 2'-O-methyl, p phosphodiester). Strings are as the collection lists them; they lack the last nucleoside at the 3' end of the tested compound. [moe] = 2'-O-(2-methoxyethyl) (MOE); [sp] = phosphorothioate linkage; [m5C] = 5-methylcytosine
Target: SCN2A
Test: mouse, dose not given
Conditions: ASO

Row | Substance | 3 h FOB score
1 | RNA1{[moe](G)[sp].[moe](A)p.[moe](G)p.[moe](A)p.[moe](G)p.d(A)[sp].d(T)[sp].d(T)[sp].d(G)[sp].d([m5C])[sp].d(T)[sp].d(T)[sp].d(T)[sp].d([m5C])[sp].d([m5C])[sp].[moe]([m5C])p.[moe](T)p.[moe](T)[sp].[moe](T)}$$$$ (last 3' nucleoside missing) | 1.33 score 0-7
2 | RNA1{[moe](A)[sp].[moe]([m5C])p.[moe](A)p.[moe](T)p.[moe](A)p.d(T)[sp].d(T)[sp].d(T)[sp].d(T)[sp].d(T)[sp].d([m5C])[sp].d(T)[sp].d(A)[sp].d([m5C])[sp].d(A)[sp].[moe]([m5C])p.[moe](T)p.[moe](G)[sp].[moe]([m5C])}$$$$ (last 3' nucleoside missing) | 0 score 0-7
3 | RNA1{[moe](T)[sp].[moe]([m5C])p.[moe](T)p.[moe](G)p.[moe]([m5C])p.d(A)[sp].d(T)[sp].d(G)[sp].d(T)[sp].d(A)[sp].d(A)[sp].d([m5C])[sp].d([m5C])[sp].d(T)[sp].d(T)[sp].[moe](T)p.[moe](A)p.[moe](T)[sp].[moe](A)}$$$$ (last 3' nucleoside missing) | 0 score 0-7
4 | RNA1{[moe](G)[sp].[moe](A)p.[moe]([m5C])p.[moe]([m5C])p.[moe](G)p.[moe](T)p.d([m5C])[sp].d(T)[sp].d([m5C])[sp].d(T)[sp].d(T)[sp].d(T)[sp].d([m5C])[sp].d(T)[sp].d(T)[sp].d(A)[sp].[moe](T)p.[moe](T)[sp].[moe](T)}$$$$ (last 3' nucleoside missing) | 0 score 0-7
5 | RNA1{[moe]([m5C])[sp].[moe]([m5C])p.[moe](A)p.[moe]([m5C])p.[moe](G)p.[moe](A)p.d([m5C])[sp].d(A)[sp].d(T)[sp].d(A)[sp].d(T)[sp].d(T)[sp].d(T)[sp].d(T)[sp].d(T)[sp].d([m5C])[sp].[moe](T)p.[moe](A)[sp].[moe]([m5C])}$$$$ (last 3' nucleoside missing) | 0 score 0-7
6 | RNA1{[moe](G)[sp].[moe]([m5C])p.[moe](A)p.[moe](T)p.d(A)[sp].d(A)[sp].d(T)[sp].d([m5C])[sp].d([m5C])[sp].d([m5C])[sp].d(A)[sp].d(T)[sp].d(T)[sp].d(A)[sp].[moe](T)p.[moe](A)p.[moe]([m5C])p.[moe](A)[sp].[moe](A)}$$$$ (last 3' nucleoside missing) | 0 score 0-7
7 | RNA1{[moe]([m5C])[sp].[moe](T)p.[moe](G)p.[moe]([m5C])p.[moe](A)[sp].d(T)[sp].d(G)[sp].d(T)[sp].d(A)[sp].d(A)[sp].d([m5C])[sp].d([m5C])[sp].d(T)[sp].[moe](T)p.[moe](T)p.[moe](A)[sp].[moe](T)}$$$$ (last 3' nucleoside missing) | 0.5 score 0-7
8 | RNA1{[moe]([m5C])[sp].[moe](A)p.[moe](G)p.[moe]([m5C])p.[moe](A)p.[moe](T)p.d(A)[sp].d(T)[sp].d(T)[sp].d([m5C])[sp].d(T)[sp].d(A)[sp].d(A)[sp].d([m5C])[sp].d(A)[sp].d(T)[sp].[moe](G)p.[moe](G)[sp].[moe](T)}$$$$ (last 3' nucleoside missing) | 0 score 0-7
9 | RNA1{[moe](A)[sp].[moe](T)p.[moe]([m5C])p.[moe](A)p.d(T)[sp].d(G)[sp].d([m5C])[sp].d(A)[sp].d(T)[sp].d(A)[sp].d(A)[sp].d(T)[sp].d([m5C])[sp].d([m5C])[sp].[moe]([m5C])p.[moe](A)p.[moe](T)p.[moe](T)[sp].[moe](A)}$$$$ (last 3' nucleoside missing) | 1 score 0-7
10 | RNA1{[moe](T)[sp].[moe](T)p.[moe]([m5C])p.[moe](T)p.[moe](G)p.[moe]([m5C])p.d(A)[sp].d(T)[sp].d(G)[sp].d(T)[sp].d(A)[sp].d(A)[sp].d([m5C])[sp].d([m5C])[sp].d(T)[sp].d(T)[sp].[moe](T)p.[moe](A)[sp].[moe](T)}$$$$ (last 3' nucleoside missing) | 0 score 0-7
11 | RNA1{[moe](T)[sp].[moe](G)p.[moe]([m5C])p.[moe](A)p.[moe](T)p.[moe](G)p.d(T)[sp].d(A)[sp].d(A)[sp].d([m5C])[sp].d([m5C])[sp].d(T)[sp].d(T)[sp].d(T)[sp].d(A)[sp].d(T)[sp].[moe](A)p.[moe]([m5C])[sp].[moe](A)}$$$$ (last 3' nucleoside missing) | 0 score 0-7
12 | RNA1{[moe](G)[sp].[moe]([m5C])p.[moe](A)p.[moe](T)p.[moe](G)p.[moe](T)[sp].d(A)[sp].d(A)[sp].d([m5C])[sp].d([m5C])[sp].d(T)[sp].d(T)[sp].d(T)[sp].d(A)[sp].[moe](T)p.[moe](A)[sp].[moe]([m5C])}$$$$ (last 3' nucleoside missing) | 0.33 score 0-7
13 | RNA1{[moe](A)[sp].[moe](A)p.[moe](T)p.[moe](T)p.d([m5C])[sp].d(T)[sp].d(A)[sp].d(T)[sp].d(T)[sp].d(T)[sp].d(T)[sp].d(A)[sp].d(T)[sp].d(A)[sp].[moe](A)p.[moe](A)p.[moe](T)p.[moe](G)[sp].[moe]([m5C])}$$$$ (last 3' nucleoside missing) | 0 score 0-7
14 | RNA1{[moe]([m5C])[sp].[moe](T)p.[moe]([m5C])p.[moe](T)p.[moe](T)p.[moe](T)p.d([m5C])[sp].d(T)[sp].d(T)[sp].d(A)[sp].d(T)[sp].d(T)[sp].d(T)[sp].d([m5C])[sp].d(T)[sp].d(G)[sp].[moe](T)p.[moe](T)[sp].[moe](T)}$$$$ (last 3' nucleoside missing) | 1 score 0-7
15 | RNA1{[moe](A)[sp].[moe]([m5C])p.[moe]([m5C])p.[moe](G)p.[moe](T)p.d([m5C])[sp].d(T)[sp].d([m5C])[sp].d(T)[sp].d(T)[sp].d(T)[sp].d([m5C])[sp].d(T)[sp].d(T)[sp].d(A)[sp].[moe](T)p.[moe](T)p.[moe](T)[sp].[moe]([m5C])}$$$$ (last 3' nucleoside missing) | 7 score 0-7
16 | RNA1{[moe](G)[sp].[moe]([m5C])p.[moe]([m5C])p.[moe](T)p.[moe](A)p.d([m5C])[sp].d(T)[sp].d(T)[sp].d([m5C])[sp].d([m5C])[sp].d(T)[sp].d(T)[sp].d([m5C])[sp].d([m5C])[sp].d(A)[sp].[moe](A)p.[moe](G)p.[moe](G)[sp].[moe](A)}$$$$ (last 3' nucleoside missing) | 0.33 score 0-7
17 | RNA1{[moe]([m5C])[sp].[moe](A)p.[moe]([m5C])p.[moe](G)p.d([m5C])[sp].d(T)[sp].d(T)[sp].d(A)[sp].d([m5C])[sp].d(A)[sp].d(T)[sp].d([m5C])[sp].d(A)[sp].d(A)[sp].[moe](A)p.[moe]([m5C])p.[moe](A)p.[moe](T)[sp].[moe]([m5C])}$$$$ (last 3' nucleoside missing) | 0 score 0-7
18 | RNA1{[moe]([m5C])[sp].[moe](A)p.[moe](T)p.[moe](G)p.[moe](T)p.[moe](A)[sp].d(A)[sp].d([m5C])[sp].d([m5C])[sp].d(T)[sp].d(T)[sp].d(T)[sp].d(A)[sp].d(T)[sp].[moe](A)p.[moe]([m5C])[sp].[moe](A)}$$$$ (last 3' nucleoside missing) | 0 score 0-7
19 | RNA1{[moe](A)[sp].[moe](T)p.[moe]([m5C])p.[moe](A)p.d([m5C])[sp].d(T)[sp].d(T)[sp].d(T)[sp].d([m5C])[sp].d(A)[sp].d(T)[sp].d([m5C])[sp].d([m5C])[sp].d(A)[sp].[moe]([m5C])p.[moe](G)p.[moe](A)p.[moe]([m5C])[sp].[moe](A)}$$$$ (last 3' nucleoside missing) | 1 score 0-7
20 | RNA1{[moe]([m5C])[sp].[moe](A)p.[moe](T)p.[moe](A)p.d(T)[sp].d(T)[sp].d(T)[sp].d(T)[sp].d(T)[sp].d([m5C])[sp].d(T)[sp].d(A)[sp].d([m5C])[sp].d(A)[sp].[moe]([m5C])p.[moe](T)p.[moe](G)p.[moe]([m5C])[sp].[moe](T)}$$$$ (last 3' nucleoside missing) | 2 score 0-7
21 | RNA1{[moe](T)[sp].[moe](T)p.[moe](T)p.[moe](G)p.d(G)[sp].d(G)[sp].d([m5C])[sp].d([m5C])[sp].d(A)[sp].d(T)[sp].d(T)[sp].d(T)[sp].d(T)[sp].d([m5C])[sp].[moe](A)p.[moe](T)p.[moe]([m5C])p.[moe](A)[sp].[moe](T)}$$$$ (last 3' nucleoside missing) | 0 score 0-7
22 | RNA1{[moe](T)[sp].[moe]([m5C])p.[moe](T)p.[moe](G)p.[moe]([m5C])p.[moe](A)[sp].d(T)[sp].d(G)[sp].d(T)[sp].d(A)[sp].d(A)[sp].d([m5C])[sp].d([m5C])[sp].d(T)[sp].[moe](T)p.[moe](T)[sp].[moe](A)}$$$$ (last 3' nucleoside missing) | 0.33 score 0-7
23 | RNA1{[moe](T)[sp].[moe](T)p.[moe]([m5C])p.[moe](T)p.d(G)[sp].d([m5C])[sp].d(A)[sp].d(T)[sp].d(G)[sp].d(T)[sp].d(A)[sp].d(A)[sp].d([m5C])[sp].d([m5C])[sp].[moe](T)p.[moe](T)p.[moe](T)p.[moe](A)[sp].[moe](T)}$$$$ (last 3' nucleoside missing) | 1 score 0-7
24 | RNA1{[moe]([m5C])[sp].[moe](T)p.[moe](G)p.[moe](T)p.[moe](T)p.d(T)[sp].d(G)[sp].d(G)[sp].d(G)[sp].d(T)[sp].d([m5C])[sp].d(T)[sp].d([m5C])[sp].d(T)[sp].d(T)[sp].[moe](A)p.[moe](G)p.[moe]([m5C])[sp].[moe](T)}$$$$ (last 3' nucleoside missing) | 2.67 score 0-7
25 | RNA1{[moe]([m5C])[sp].[moe](A)p.[moe]([m5C])p.[moe](G)p.[moe]([m5C])p.[moe](T)p.d(T)[sp].d(A)[sp].d([m5C])[sp].d(A)[sp].d(T)[sp].d([m5C])[sp].d(A)[sp].d(A)[sp].d(A)[sp].d([m5C])[sp].[moe](A)p.[moe](T)[sp].[moe]([m5C])}$$$$ (last 3' nucleoside missing) | 0 score 0-7
26 | RNA1{[moe](G)[sp].[moe](A)p.[moe]([m5C])p.[moe](A)p.d(T)[sp].d(A)[sp].d(T)[sp].d(T)[sp].d(T)[sp].d(T)[sp].d(T)[sp].d([m5C])[sp].d(T)[sp].d(A)[sp].[moe]([m5C])p.[moe](A)p.[moe]([m5C])p.[moe](T)[sp].[moe](G)}$$$$ (last 3' nucleoside missing) | 1 score 0-7

Source: the OligoGym collection
